# Reference: US20220107328A1, “METHODS OF TREATING LIVER DISEASES” (Camp4 Therapeutics Corporation, priority 2018, published 2022)
# Legend:
# [1] = test system: phosphorylated NDRG1 (pNDRG1/NDRG1); experiment: Western blot of phosphorylated NDRG1 in human hepatocytes; type: cell-based; conditions: 3 μM, mTORC2 pathway, time point not stated
# Procedure: (§1) Levels of phosphorylated S6, AKT, and NDRG1 proteins were determined as compared to total S6, AKT, and NDRG1 protein. PNPLA3 mRNA expression was quantified and normalized to housekeeping gene GUSB.
# COL1A1 mRNA = experiment: qRT-PCR of COL1A1 mRNA in human primary hepatic stellate cells; type: cell-based; conditions: for Primary Stellate cells COL1A1 (fold change in mRNA expression): 3 μM, relative to GAPDH; for Relative COL1A1 mRNA levels RQ: hepatic stellate cells
# [2] = test system: phosphorylated AKT (pAKT/AKT); experiment: Western blot of phosphorylated AKT in human hepatocytes; type: cell-based; conditions: 3 μM; for phosphorylated AKT (pAKT/AKT) over time (in words): 35 min to 20 hrs, relative to DMSO control; for pAKT (473)/AKT: human hepatocytes, mTORC2 pathway, time point not stated
# Procedure: as §1
# PNPLA3 mRNA [3] = experiment: qRT-PCR of PNPLA3 mRNA in compound-treated primary human hepatocytes; conditions: for PNPLA3 mRNA expression level over time (in words) / PNPLA3 mRNA: 3 μM, normalized to GUSB; for PNPLA3 mRNA expression level over time (in words): 35 min to 20 hrs; for Primary Hepatocytes 4178 PNPLA3 (fold change in mRNA expression): donor 4178, 3 μM; for Primary Hepatocytes 4178 PNPLA3 (fold change in mRNA expression) / Primary Hepatocytes 4282 PNPLA3 (fold change in mRNA expression): relative to GUSB; for Primary Hepatocytes 4282 PNPLA3 (fold change in mRNA expression): donor 4282, 3 μM; for PNPLA3 mRNA: human hepatocytes, time point not stated; for Relative PINPLA3 mRNA: hepatocytes
# PNPLA3 mRNA [4] = experiment: qRT-PCR of PNPLA3 mRNA in human primary hepatic stellate cells; type: cell-based; conditions: for Primary Stellate cells PNPLA3 (fold change in mRNA expression): 3 μM, relative to GAPDH; for Relative PNPLA3 mRNA levels RQ: hepatic stellate cells
# [5] = test system: phosphorylated 4EBP1 (p4EBP1c (37/46)/4EBP1c); experiment: Western blot of phosphorylated 4EBP1 in human hepatocytes; type: cell-based; conditions: 3 μM, mTORC1 pathway, time point not stated
# PCSK9 mRNA = experiment: qRT-PCR of PCSK9 mRNA in primary hepatocytes; type: cell-based, human; conditions: donor 4178, 3 μM, relative to GUSB
# [6] = test system: phosphorylated S6 (pS6/S6); experiment: Western blot of phosphorylated S6 in human hepatocytes; type: cell-based; conditions: 3 μM; for phosphorylated S6 (pS6/S6) over time (in words): 35 min to 20 hrs, relative to DMSO control; for pS6/S6: human hepatocytes, mTORC1 pathway, time point not stated
# Procedure: as §1
# [7] = test system: multiple human tumor cell types; conditions: combined with cytotoxic, hormonal, and targeted agents; cited from earlier work
# COL1A2 mRNA = experiment: qRT-PCR of fibrosis related genes in stellate cells, COL1A2; type: cell-based, human; conditions: stellate cells P7, 0.5 μM, 18 hours
# Procedure: (§2) Stellate cells P7 were treated with 0.5 μM of each of the indicated compounds for 18 hours. Cells were processed for RNA extraction and qRT-PCR as previously described. The assay was repeated in triplicate.
# MMP2 mRNA = experiment: qRT-PCR of fibrosis related genes in stellate cells, MMP2; type: cell-based, human; conditions: stellate cells P7, 0.5 μM, 18 hours
# Procedure: as §2
# ACTA2 mRNA = experiment: qRT-PCR of fibrosis related genes in stellate cells, ACTA2; type: cell-based, human; conditions: stellate cells P7, 0.5 μM, 18 hours
# Procedure: as §2
# TGFB1 mRNA = experiment: qRT-PCR of fibrosis related genes in stellate cells, TGFB1; type: cell-based, human; conditions: stellate cells P7, 0.5 μM, 18 hours
# Procedure: as §2
# PNPLA3 mRNA [8] = experiment: qRT-PCR of PNPLA3 mRNA in compound-treated mouse hepatocytes; type: cell-based; conditions: mouse hepatocytes, 1 μM, normalized to ACTB
# TIM2 mRNA = experiment: qRT-PCR of fibrosis related genes in stellate cells, TIM2; type: cell-based, human; conditions: stellate cells P7, 0.5 μM, 18 hours
# Procedure: as §2
# [9] = stellate cells P7, 0.5 μM, 18 hours
Primary Hepatocytes 4178 PNPLA3 (fold change in mRNA expression) (PNPLA3 mRNA [3]),Primary Hepatocytes 4282 PNPLA3 (fold change in mRNA expression) (PNPLA3 mRNA [3]),Primary Hepatocytes 4178 PCSK9 (fold change in mRNA expression) (PCSK9 mRNA),Structure (SMILES),p-NDRG1/NDRG1 [1],Primary Stellate cells COL1A1 (fold change in mRNA expression) (COL1A1 mRNA),phosphorylated AKT (pAKT/AKT) over time (in words) [2],pAKT (473)/AKT [2],PNPLA3 mRNA expression level over time (in words) (PNPLA3 mRNA [3]),PNPLA3 mRNA (PNPLA3 mRNA [3]),Primary Stellate cells PNPLA3 (fold change in mRNA expression) (PNPLA3 mRNA [4]),p4EBP1c (37/46)#/4EBP1c [5],phosphorylated S6 (pS6/S6) over time (in words) [6],pS6/S6 [6],other results
0.80,0.69,0.67,"Cc1nc(NC(=O)N2CCC[C@H]2C(N)=O)sc1-c1ccnc(C(C)(C)C(F)(F)F)c1 [Alpelisib (BYL719), Alpelisib]",1.11,1.16,largely did not change,0.34,largely did not change,0.971,0.94,0.61,"increased at 2 hours, then decreased",1.11,PNPLA3 mRNA expression level over time (in words) (PNPLA3 mRNA [3]; listed as Alpenisib): did not lead to decreased PNPLA3 expression
–,–,–,C[C@@]1(C(=O)Nc2ccc(F)nc2)CCCN1c1nc(Nc2cc(C3CC3)[nH]n2)c2cccn2n1 [BMS-754807],–,–,–,–,–,–,–,–,–,–,combination index [7]: < 1.0
0.49,0.60,0.51,CS(=O)(=O)N1CCc2c(-c3cnc(N)nc3)nc(N3CCOCC3)nc21 [CH5132799],0.47,0.81,increased at 3 hours and decreased to pre-treatment levels at 4.5 hours,0.22,decreased levels of PNPLA3 expression after 3 hours,0.511,0.56,0.40,decreased at 1 hour,0.06,PNPLA3 mRNA expression level over time (in words) (PNPLA3 mRNA [3]; listed as CH51332799): down regulated PNPLA3 gene expression; Relative PINPLA3 mRNA (PNPLA3 mRNA [3]; 0.1 uM): 0.940; Relative PINPLA3 mRNA (PNPLA3 mRNA [3]; 0.3 uM): 0.870; Relative PINPLA3 mRNA (PNPLA3 mRNA [3]; 1 uM): 0.743; Relative PINPLA3 mRNA (PNPLA3 mRNA [3]; 3 uM): 0.491
1.50,1.63,0.98,CC(C)n1nc(-c2ccc3oc(N)nc3c2)c2c(N)ncnc21 [INK-128],–,0.47,–,–,–,–,0.56,–,–,–,Relative mRNA COL1A2 (COL1A2 mRNA): 0.30 ± 0.01; Relative COL1A1 mRNA levels RQ (COL1A1 mRNA; 0.01 μM): 1.05; Relative COL1A1 mRNA levels RQ (COL1A1 mRNA; 0.1 μM): 0.27; Relative COL1A1 mRNA levels RQ (COL1A1 mRNA; 1 μM): 0.32; Relative COL1A1 mRNA levels RQ (COL1A1 mRNA; 10 μM): 0.21; Relative mRNA COL1A1 (COL1A1 mRNA; [9]): 0.23 ± 0.01; Relative mRNA MMP2 (MMP2 mRNA): 1.53 ± 0.05; Relative mRNA ACTA2 (ACTA2 mRNA): 0.61 ± 0.02; Relative mRNA TGFB1 (TGFB1 mRNA): 1.20 ± 0.02; Relative PNPLA3 mRNA levels RQ (PNPLA3 mRNA [4]; 0.01 μM): 0.40; Relative PNPLA3 mRNA levels RQ (PNPLA3 mRNA [4]; 0.1 μM): 0.28; Relative PNPLA3 mRNA levels RQ (PNPLA3 mRNA [4]; 1 μM): 0.58; Relative PNPLA3 mRNA levels RQ (PNPLA3 mRNA [4]; 10 μM): 0.58; Relative mRNA PNPLA3 (PNPLA3 mRNA [4]; [9]): 0.28 ± 0.01; Relative PNPLA3 mRNA levels (PNPLA3 mRNA [8]): 0.30 ± 0.14; Relative mRNA TIMP2 (TIM2 mRNA): 1.26 ± 0.01
